Test system: relapsed or refractory, rituximab-naive or -sensitive follicular B-cell NHL
Assay: Time to progression (TTP), Vc-R vs rituximab study, by biomarker
Assay type: in vivo, human
Parameters: TTP Median: unit not given here
Excerpt: Non-Hodgkin lymphoma (NHL) encompasses several unique malignant lymphoid disease entities that vary in clinical behavior, morphologic appearance, immunologic, and molecular phenotype. […] A randomized, open-label, active-controlled, multicenter, multinational, prospective study to compare the efficacy and safety of the combination of bortezomib and rituximab (Vc-R) to single-agent rituximab in subjects who have relapsed or refractory, rituximab-naive or -sensitive follicular B-cell NHL was performed.
Subjects were centrally randomized to Treatment Groups A (Vc-R) or B (rituximab) in a 1:1 ratio taking into account the following stratification factors: • Follicular Lymphoma International Prognostic Index (FLIPI) score (low [0 or 1 factor], intermediate [2 factors], high [≧3 factors]); • Prior rituximab therapy (yes, no); • Time since last dose of anti-lymphoma therapy (≦1 year, >1 year); • Region (United States/Canada, European Union, Rest of World).
For single-marker association analyses and pair-wise comparisons, a log rank test and Cox proportional hazard model was utilized for assessments of PFS, TTP, and OS between the treatment groups. Kaplan-Meier curves were utilized to estimate the distribution differences between groups in the time-to-event analyses. Comparison of the response rates between the treatment groups was conducted using the Fishers exact test. Single-marker association analyses were stratified by the covariates.
For pair-wise comparison analysis, biomarker pairs were formed by combinations of two markers. A log rank test was utilized for assessments of PFS, TTP, and OS between the treatment groups in the subpopulation defined by biomarker pairs. Kaplan-Meier curves were utilized to estimate the distribution differences between groups in the time-to-event analyses. Comparison of the response rates between the treatment groups was conducted using the Fishers exact test. Methods of Analysis for the multiple biomarker comparison models can be found in section 4.6.

[1] = 20S % NUCLEAR STAINING: 30-50, 2 Prior Lines of Therapy
[2] = 20S % NUCLEAR STAINING: 60-70, Male
[3] = 20S % POSITIVE CYTOPLASMIC SIGNAL: 0-20, >65 years old
[4] = 20S % POSITIVE CYTOPLASMIC SIGNAL: 95-100, Ann Arbor Stage IV
[5] = 20S INTENSITY CYTOPLASMIC SIGNAL: ≧3+, Male
[6] = CD68 OVERALL POSITIVE: 0-25, 2 Prior Lines of Therapy
[7] = CD68 OVERALL POSITIVE: 0-25, ≦1 year since last anti-lymphoma treatment
[8] = CD68 OVERALL POSITIVE: 26-50, Ann Arbor Stage IV
[9] = CD68 OVERALL POSITIVE: 26-50, High FLIPI Score
[10] = CD68 OVERALL POSITIVE: 26-50, No High Tumor Burden
[11] = CD68 OVERALL POSITIVE: 26-50, Rest of World
[12] = CD68 OVERALL POSITIVE: 26-50, ≦65 years old
[13] = CD68 POSITIVE FOLLICULAR: 0-25, >1 year since last anti-lymphoma treatment
[14] = CD68 POSITIVE FOLLICULAR: 26-50, 1 Prior Line of Therapy
[15] = CD68 POSITIVE FOLLICULAR: 26-50, High FLIPI Score
[16] = CD68 POSITIVE FOLLICULAR: 26-50, No High Tumor Burden
[17] = CD68 POSITIVE FOLLICULAR: 26-50, No Subgroup
[18] = CD68 POSITIVE FOLLICULAR: 26-50, White
[19] = CD68 POSITIVE FOLLICULAR: 26-50, ≦65 years old
[20] = CD68 POSITIVE FOLLICULAR: 51-75, Female
[21] = CD68 POSITIVE PERIFOLLICULAR: 0-25, 2 Prior Lines of Therapy
[22] = CD68 POSITIVE PERIFOLLICULAR: 26-50, Male
[23] = CD68 POSITIVE PERIFOLLICULAR: 26-50, Other
[24] = CD68 POSITIVE PERIFOLLICULAR: >75, 1 Prior Line of Therapy
[25] = CD68 POSITIVE PERIFOLLICULAR: >75, ≦65 years old
[26] = P27 % NUCLEI POSITIVE: 30-50, Ann Arbor Stage IV
[27] = P27 % NUCLEI POSITIVE: 60-70, Intermediate FLIPI Score
[28] = P27 SIGNAL INTENSITY: ≧2+, 4 Prior Lines of Therapy
[29] = P27 SIGNAL INTENSITY: ≧2+, Ann Arbor Stage IV
[30] = P27 SIGNAL INTENSITY: ≧2+, Male
[31] = P27 SIGNAL INTENSITY: ≧2+, ≦65 years old
[32] = P65 % NUCLEAR STAINING: 0, Male
[33] = P65 % NUCLEAR STAINING: 0, No Prior Rituximab Therapy
[34] = P65 % NUCLEAR STAINING: 0, ≦65 years old
[35] = P65 % POSITIVE CYTOPLASMIC SIGNAL: >90%, 1 Prior Line of Therapy
[36] = P65 % POSITIVE CYTOPLASMIC SIGNAL: >90%, >1 year since last anti-lymphoma treatment
[37] = P65 % POSITIVE CYTOPLASMIC SIGNAL: >90%, Ann Arbor Stage IV
[38] = P65 % POSITIVE CYTOPLASMIC SIGNAL: >90%, High FLIPI Score
[39] = P65 % POSITIVE CYTOPLASMIC SIGNAL: >90%, Male
[40] = P65 % POSITIVE CYTOPLASMIC SIGNAL: >90%, No Prior Rituximab Therapy
[41] = P65 % POSITIVE CYTOPLASMIC SIGNAL: >90%, No Subgroup
[42] = P65 % POSITIVE CYTOPLASMIC SIGNAL: >90%, White
[43] = P65 % POSITIVE CYTOPLASMIC SIGNAL: >90%, ≦65 years old
[44] = P65 % POSITIVE CYTOPLASMIC SIGNAL: ≦90%, Intermediate FLIPI Score
[45] = P65 INTENSITY CYTOPLASMIC SIGNAL: ≦1+, Ann Arbor Stage III
[46] = P65 INTENSITY CYTOPLASMIC SIGNAL: ≧2+, High FLIPI Score
[47] = P65 INTENSITY CYTOPLASMIC SIGNAL: ≧2+, ≦65 years old
[48] = PSMB1/A171S: G/G, Ann Arbor Stage IV, IRC review
[49] = PSMB1/A171S: G/G, High Tumor Burden, IRC review

With rituximab the “TTP Evt/N” value [1] was 11/13, the “TTP Median” value [1] was 239 and the “TTP Evt/N” value [2] was 13/16. For the same substance, the “TTP Median” value [2] was 212, the “TTP Evt/N” value [3] was 5/6 and the “TTP Median” value [3] was 278. For the same substance, the “TTP Evt/N” value [4] was 43/56, the “TTP Median” value [4] was 278 and the “TTP Evt/N” value [5] was 20/27. The “TTP Median” value [5] was 280, the “TTP Evt/N” value [6] was 6/8 and the “TTP Median” value [6] was 142. For the same substance, the “TTP Evt/N” value [7] was 11/18, the “TTP Median” value [7] was 424 and the “TTP Evt/N” value [8] was 44/56. The “TTP Median” value [8] was 277, the “TTP Evt/N” value [9] was 36/45 and the “TTP Median” value [9] was 277. For the same substance, the “TTP Evt/N” value [10] was 37/54, the “TTP Median” value [10] was 357 and the “TTP Evt/N” value [11] was 40/51. The “TTP Median” value [11] was 277, the “TTP Evt/N” value [12] was 57/77 and the “TTP Median” value [12] was 278. The “TTP Evt/N” value [13] was 23/34, the “TTP Median” value [13] was 357 and the “TTP Evt/N” value [14] was 26/39. The “TTP Median” value [14] was 349, the “TTP Evt/N” value [15] was 31/37 and the “TTP Median” value [15] was 205. For the same substance, the “TTP Evt/N” value [16] was 29/44, the “TTP Median” value [16] was 351 and the “TTP Evt/N” value [17] was 65/91. For the same substance, the “TTP Median” value [17] was 277, the “TTP Evt/N” value [18] was 53/77 and the “TTP Median” value [18] was 334. For the same substance, the “TTP Evt/N” value [19] was 52/67, the “TTP Median” value [19] was 270 and the “TTP Evt/N” value (CD68 POSITIVE FOLLICULAR: 51-75, 3 Prior Lines of Therapy) was 1/4. For the same substance, the “TTP Evt/N” value [20] was 14/26, the “TTP Median” value [20] was 708 and the “TTP Evt/N” value [21] was 7/8. The “TTP Median” value [21] was 70, the “TTP Evt/N” value [22] was 22/30 and the “TTP Median” value [22] was 239. For the same substance, the “TTP Evt/N” value [23] was 4/4, the “TTP Median” value [23] was 128 and the “TTP Evt/N” value [24] was 13/18. For the same substance, the “TTP Median” value [24] was 275, the “TTP Evt/N” value [25] was 17/23 and the “TTP Median” value [25] was 275. The “TTP Evt/N” value [26] was 15/19, the “TTP Median” value [26] was 278 and the “TTP Evt/N” value [27] was 6/13. The “TTP Median” value [27] was 513, the “TTP Evt/N” value [28] was 9/15 and the “TTP Median” value [28] was 348. The “TTP Evt/N” value [29] was 64/85, the “TTP Median” value [29] was 283 and the “TTP Evt/N” value [30] was 52/72. For the same substance, the “TTP Median” value [30] was 280, the “TTP Evt/N” value [31] was 104/153 and the “TTP Median” value [31] was 281. The “TTP Evt/N” value [32] was 56/74, the “TTP Median” value [32] was 280 and the “TTP Evt/N” value [33] was 77/102. For the same substance, the “TTP Median” value [33] was 322, the “TTP Evt/N” value [34] was 97/138 and the “TTP Median” value [34] was 287. For the same substance, the “TTP Evt/N” value [35] was 56/89, the “TTP Median” value [35] was 349 and the “TTP Evt/N” value [36] was 77/117. The “TTP Median” value [36] was 357, the “TTP Evt/N” value [37] was 67/87 and the “TTP Median” value [37] was 275. For the same substance, the “TTP Evt/N” value [38] was 61/83, the “TTP Median” value [38] was 239 and the “TTP Evt/N” value [39] was 54/72. For the same substance, the “TTP Median” value [39] was 271, the “TTP Evt/N” value [40] was 80/112 and the “TTP Median” value [40] was 345. The “TTP Evt/N” value [41] was 139/204, the “TTP Median” value [41] was 334 and the “TTP Evt/N” value [42] was 119/179. The “TTP Median” value [42] was 345, the “TTP Evt/N” value [43] was 108/154 and the “TTP Median” value [43] was 278. The “TTP Evt/N” value [44] was 5/16, the “TTP Median” value [44] was 567 and the “TTP Evt/N” value [45] was 7/11. For the same substance, the “TTP Median” value [45] was 204, the “TTP Evt/N” value [46] was 60/80 and the “TTP Median” value [46] was 275. The “TTP Evt/N” value [47] was 105/152, the “TTP Median” value [47] was 287 and the “TTP Evt/N” value [48] was 95/127. For the same substance, the “TTP Median” value [48] was 278, the “TTP Evt/N” value [49] was 110/147 and the “TTP Median” value [49] was 273. For the same substance, the “TTP Evt/N” value (PSMB1/A171S: G/G, ≦65 years old, IRC review) was 131/198.
